The target of the test is T1, N-terminal HiBiT tagged BCL6 (Homo sapiens, UniProt P41182).
T1 construct: expressed in transfected cells; host or cells: HT1080 (ATCC CCL-121), stably transduced with lentivirus pLV-UBC-N-HiBiT-BCL6-PGK-puro
Briefly: HiBiT based degradation assay. The test is classed as cell-based. The settings on record: HT1080 cells expressing N-terminal HiBiT tagged BCL6, 5 hours of incubation; for Ymin (5 hr): BCL6 degradation normalized with DMSO control; for DC50: four-parameter logistic model, read-out: EC50 (5 hr). The gist of the method: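 Degradation measured by luminescence from the Nano-Glo HiBiT lytic reagent (15 min, room temperature), normalized to DMSO controls and fitted to a four-parameter curve.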
On the technique in general: With HiBiT, luminescence reflects the tagged protein that the partner subunit can reach.

Turning to `CNC(=O)COc1cc2cc(Nc3nc(N4CC[C@@H](CNc5ccc6c(C7CCC(=O)NC7=O)nn(C)c6c5)C4)ncc3Cl)cnc2n(C)c1=O` (stereo partly drawn) [Compound 123b, 2-((6-((5-chloro-2-((3S)-3-(((3-(2,6-dioxopiperidin-3-yl)-1-methyl-1H-indazol-6-yl)amino)methyl)pyrrolidin-1-yl)pyrimidin-4-yl)amino)-1-methyl-2-oxo-1,2-dihydro-1,8-naphthyridin-3-yl)oxy)-N-methylacetamide], the “Ymin (5 hr)” value is “++++ (Ymin < 30%)” and the DC50 is less than 10 nM.
The matching figures for `CNC(=O)COc1cc2cc(Nc3nc(N4CCN([C@H]5C[C@H](OC6CCN(c7ccc8c(C9CCC(=O)NC9=O)nn(C)c8c7)CC6)C5)CC4)ncc3Cl)cnc2n(C(C)C)c1=O` (some centres unmarked) [Compound 227a, 2-((6-((5-chloro-2-(4-((1r,3r)-3-((1-(3-(2,6-dioxopiperidin-3-yl)-1-methyl-1H-indazol-6-yl)piperidin-4-yl)oxy)cyclobutyl)piperazin-1-yl)pyrimidin-4-yl)amino)-1-isopropyl-2-oxo-1,2-dihydro-1,8-naphthyridin-3-yl)oxy)-N-methylacetamide]: “++ (50% ≤ Ymin < 70%)” and less than 10 nM.
As to `CNC(=O)COc1cc2cc(Nc3nc(N4CC5(CC[C@@H](Oc6ccc7c(C8CCC(=O)NC8=O)nn(C)c7c6)[C@H](C)C5)C4)ncc3Cl)cnc2n(C(C)C)c1=O` (relative stereo) [Compound 185d, 2-[[6-[[5-chloro-2-[(6R,7R)-7-[3-(2,6-dioxo-3-piperidyl)-1-methyl-indazol-6-yl]oxy-6-methyl-2-azaspiro[3.5]nonan-2-yl]pyrimidin-4-yl]amino]-1-isopropyl-2-oxo-1,8-naphthyridin-3-yl]oxy]-N-methyl-acetamide], the “Ymin (5 hr)” value is given as “++++ (Ymin < 30%)” and the DC50 was less than 10 nM.
In the same order, the values of `CNC(=O)COc1cc2cc(Nc3nc(N4CC[C@H](CN5CCC(c6ccc7c(C8CCC(=O)NC8=O)nn(C)c7c6)CC5)[C@H](F)C4)ncc3Cl)cnc2n(C(C)C)c1=O` (relative stereo) [Compound 242a, 2-((6-((5-chloro-2-((3S,4R)-4-((4-(3-(2,6-dioxopiperidin-3-yl)-1-methyl-1H-indazol-6-yl)piperidin-1-yl)methyl)-3-fluoropiperidin-1-yl)pyrimidin-4-yl)amino)-1-isopropyl-2-oxo-1,2-dihydro-1,8-naphthyridin-3-yl)oxy)-N-methylacetamide] are “++++ (Ymin < 30%)” and less than 10 nM.
As to `CNC(=O)COc1cc2cc(Nc3nc(N4CC5(CC[C@H](Oc6ccc7c(C8CCC(=O)NC8=O)nn(C)c7c6)[C@@H](C)C5)C4)ncc3Cl)cnc2n(C(C)C)c1=O` (relative stereo) [Compound 185c, 2-[[6-[[5-chloro-2-[(6S,7S)-7-[3-(2,6-dioxo-3-piperidyl)-1-methyl-indazol-6-yl]oxy-6-methyl-2-azaspiro[3.5]nonan-2-yl]pyrimidin-4-yl]amino]-1-isopropyl-2-oxo-1,8-naphthyridin-3-yl]oxy]-N-methyl-acetamide], the “Ymin (5 hr)” value was “++++ (Ymin < 30%)” and the DC50 is less than 10 nM.
The matching figures for `CNC(=O)COc1cc2cc(Nc3nc(N4CC[C@H](CN5CCN(c6cccc7c(C8CCC(=O)NC8=O)nn(C)c67)CC5)[C@@H](F)C4)ncc3Cl)cnc2n(C(C)C)c1=O` (relative stereo) [Compound 238b, 2-((6-((5-chloro-2-((3R,4R)-4-((4-(3-(2,6-dioxopiperidin-3-yl)-1-methyl-1H-indazol-7-yl)piperazin-1-yl)methyl)-3-fluoropiperidin-1-yl)pyrimidin-4-yl)amino)-1-isopropyl-2-oxo-1,2-dihydro-1,8-naphthyridin-3-yl)oxy)-N-methylacetamide]: “++++ (Ymin < 30%)” and 10 to 100 nM.
In the same order, the values of `CNC(=O)COc1cc2cc(Nc3nc(N4CC5(CCC(Nc6c(F)ccc7c(C8CCC(=O)NC8=O)nn(C)c67)CC5)C4)ncc3Cl)cnc2n(C(C)C)c1=O` (centres unmarked) [Compound 222, 2-[[6-[[5-chloro-2-[7-[[3-(2,6-dioxo-3-piperidyl)-6-fluoro-1-methyl-indazol-7-yl]amino]-2-azaspiro[3.5]nonan-2-yl]pyrimidin-4-yl]amino]-1-isopropyl-2-oxo-1,8-naphthyridin-3-yl]oxy]-N-methyl-acetamide] are “++ (50% ≤ Ymin < 70%)” and 10 to 100 nM.
In the case of `CNC(=O)COc1cc2cc(Nc3nc(N4CCC(Oc5cccc6c(C7CCC(=O)NC7=O)nn(C)c56)CC4)ncc3Cl)cnc2n(C)c1=O` (centres unmarked) [Compound 148, 2-((6-((5-chloro-2-(4-((3-(2,6-dioxopiperidin-3-yl)-1-methyl-1H-indazol-7-yl)oxy)piperidin-1-yl)pyrimidin-4-yl)amino)-1-methyl-2-oxo-1,2-dihydro-1,8-naphthyridin-3-yl)oxy)-N-methylacetamide], the “Ymin (5 hr)” value was “+++ (30% ≤ Ymin < 50%)” and the DC50 is less than 10 nM.
The matching figures for `CNC(=O)COc1cc2cc(Nc3nc(N4CCC(CN5C[C@@H]6C[C@H]5CN6c5cccc6c(C7CCC(=O)NC7=O)nn(C)c56)CC4)ncc3Cl)cnc2n(C(C)C)c1=O` (stereo partly drawn) [Compound 175b, 2-[[6-[[5-chloro-2-[4-[[(1S,4S)-5-[3-(2,6-dioxo-3-piperidyl)-1-methyl-indazol-7-yl]-2,5-diazabicyclo[2.2.1]heptan-2-yl]methyl]-1-piperidyl]pyrimidin-4-yl]amino]-1-isopropyl-2-oxo-1,8-naphthyridin-3-yl]oxy]-N-methyl-acetamide]: “+++ (30% ≤ Ymin < 50%)” and less than 10 nM.
In the same order, the values of `CNC(=O)COc1cc2cc(Nc3nc(N4CC[C@H](CN5CCN(c6ccc7c(C8CCC(=O)NC8=O)nn(C)c7c6)CC5)[C@H](C)C4)ncc3Cl)cnc2n(C(C)C)c1=O` (stereo partly drawn) [Compound 176a, 2-((6-((5-chloro-2-((3S,4S)-4-((4-(3-(2,6-dioxopiperidin-3-yl)-1-methyl-1H-indazol-6-yl)piperazin-1-yl)methyl)-3-methylpiperidin-1-yl)pyrimidin-4-yl)amino)-1-isopropyl-2-oxo-1,2-dihydro-1,8-naphthyridin-3-yl)oxy)-N-methylacetamide] are “+++ (30% ≤ Ymin < 50%)” and less than 10 nM.
In the same order, the values of `CNC(=O)COc1cc2cc(Nc3nc(N4CCC(Oc5ccc6c(C7CCC(=O)NC7=O)nn(C)c6c5)CC4)ncc3Cl)cnc2n(C(C)C)c1=O` (centres unmarked) [Compound 164, 2-[[6-[[5-chloro-2-[4-[3-(2,6-dioxo-3-piperidyl)-1-methyl-indazol-6-yl]oxy-1-piperidyl]pyrimidin-4-yl]amino]-1-isopropyl-2-oxo-1,8-naphthyridin-3-yl]oxy]-N-methyl-acetamide] are “+++ (30% ≤ Ymin < 50%)” and less than 10 nM.
As for `CNC(=O)COc1cc2cc(Nc3cc(N4CCC(CN5CCN(c6ccc7c(C8CCC(=O)NC8=O)nn(C)c7c6)CC5)CC4)ncc3Cl)cnc2n(C(C)C)c1=O` (centres unmarked) [Compound 190, 2-[[6-[[5-chloro-2-[4-[[4-[3-(2,6-dioxo-3-piperidyl)-1-methyl-indazol-6-yl]piperazin-1-yl]methyl]-1-piperidyl]-4-pyridyl]amino]-1-isopropyl-2-oxo-1,8-naphthyridin-3-yl]oxy]-N-methyl-acetamide], the “Ymin (5 hr)” value is “++ (50% ≤ Ymin < 70%)” and the DC50 is 10 to 100 nM.
In the same order, the values of `CNC(=O)COc1cc2cc(Nc3nc(N4CCC(CN5CCN(c6cccc7c(C8CCC(=O)NC8=O)nn(C)c67)C[C@@H]5C)CC4)ncc3Cl)cnc2n(C(C)C)c1=O` (stereo partly drawn) [Compound 192a, 2-[[6-[[5-chloro-2-[4-[[(2S)-4-[3-(2,6-dioxo-3-piperidyl)-1-methyl-indazol-7-yl]-2-methyl-piperazin-1-yl]methyl]-1-piperidyl]pyrimidin-4-yl]amino]-1-isopropyl-2-oxo-1,8-naphthyridin-3-yl]oxy]-N-methyl-acetamide] are “++++ (Ymin < 30%)” and 10 to 100 nM.
The matching figures for `CNC(=O)COc1cc2cc(Nc3nc(N4CCN(CC5CCN(c6cccc7c(C8CCC(=O)NC8=O)nn(C)c67)CC5)[C@@H](C(F)(F)F)C4)ncc3Cl)cnc2n(C)c1=O` (stereo partly drawn) [Compound 141a, 2-((6-((5-chloro-2-((3R)-4-((1-(3-(2,6-dioxopiperidin-3-yl)-1-methyl-1H-indazol-7-yl)piperidin-4-yl)methyl)-3-(trifluoromethyl)piperazin-1-yl)pyrimidin-4-yl)amino)-1-methyl-2-oxo-1,2-dihydro-1,8-naphthyridin-3-yl)oxy)-N-methylacetamide]: “+++ (30% ≤ Ymin < 50%)” and 10 to 100 nM.
The matching figures for `CNC(=O)COc1cc2cc(Nc3nc(N4CC5(CCC(Nc6cccc7c(C8CCC(=O)NC8=O)nn(C)c67)CC5)C4)ncc3Cl)cnc2n(C)c1=O` (centres unmarked) [Compound 137, 2-((6-((5-chloro-2-(7-((3-(2,6-dioxopiperidin-3-yl)-1-methyl-1H-indazol-7-yl)amino)-2-azaspiro[3.5]nonan-2-yl)pyrimidin-4-yl)amino)-1-methyl-2-oxo-1,2-dihydro-1,8-naphthyridin-3-yl)oxy)-N-methylacetamide]: “++++ (Ymin < 30%)” and less than 10 nM.
Take `CNC(=O)COc1cc2cc(Nc3nc(N4CCC5(CCN(CC6CCN(c7cc8c(cc7F)c(C7CCC(=O)NC7=O)nn8C)CC6)CC5)CC4)ncc3Cl)cnc2n(C(C)C)c1=O` (centres unmarked) [Compound 239, 2-((6-((5-chloro-2-(9-((1-(3-(2,6-dioxopiperidin-3-yl)-5-fluoro-1-methyl-1H-indazol-6-yl)piperidin-4-yl)methyl)-3,9-diazaspiro[5.5]undecan-3-yl)pyrimidin-4-yl)amino)-1-isopropyl-2-oxo-1,2-dihydro-1,8-naphthyridin-3-yl)oxy)-N-methylacetamide]: the “Ymin (5 hr)” value is on record as “++++ (Ymin < 30%)” and the DC50 is 10 to 100 nM.

The values above are taken from patent US20260241012A1, “1,8-NAPHTHYRIDIN-2-ONE HETEROBIFUNCTIONAL BCL6 DEGRADERS” (Treeline Biosciences, Inc., priority 2022, published 2026).
